Patent US12083172B2, “Vaccines against an oncogenic isoform of HER2 (ErbB2) and methods of using the same” (Duke University, priority 2014, dated 2024)
“Also recorded” adds a separate entry of the source. Read-outs that look alike come from different tables or passages of the source.

Experiments:
[1] = tested on: MM3MG cells stably expressing HER2d16; conditions: MM3MG-HER2d16 s.c. in SCID-Beige mice; for effect of lapatinib on growth of HER2d16 tumors: lapatinib oral gavage 75 mg/kg, 5 times a week, from day 8, FIG. 7, 75 mg/kg
Description: (§1) MM3MG cells stably expressing the indicated genes were implanted subcutaneously into SCID-Beige mice (100,000 per mouse in PBS) at days 0. Mice were treated weekly with T-DM1 via tail vein injection (200 μg/mouse) beginning at day 10. Tumor growth was measured by calipers at the indicated days (N=5, bars represent SE).
as §1, with “lapatinib by oral gavage (75 mg/kg/5 days week)” for “T-DM1 via tail vein injection (200 μg/mouse) beginning”, “8.” for “10.”
(§2) Experiments using BALB/c, and SCID-Beige mice (obtained from Jackson Labs) were done in accordance with Duke Institutional Animal Care and Use Committee-approved protocols. For tumor vaccine experiments, Human HER2-transgenic mice (kindly provided by Dr. Wei-Zen Wei, Wayne State University, Detroit, MI^4) were crossed with BALB/c mice (Jackson Labs) to permit implantation of MM3MG-HER2d16 tumors and genotyped by PCR as previously described^5. In immnodeficient animals, stable cells were injected s.c. into the flank of SCID-beige mice (at indicated cells/animal) and measured as indicated. Tumor measurements were made using calipers and volumes calculated using the formula [v=width×width×(length/2)] whereas statistical differences were calculated using a mixed effects regression model using autoregressive covariance. In treatment experiments, T-DM1 was weekly delivered via tail vein (200 μg/mouse) while Lapatinib was given by oral gavage (5 times a week, 75 mg/kg).

HER2-WT MM3MG = conditions: MM3MG-HER2-WT s.c. in SCID-Beige mice; T-DM1 weekly via tail vein, 200 μg/mouse, from day 10; FIG. 6
Description: as §1, §2

| Compound | effect of lapatinib on growth of HER2d16 tumors [1] | effect of lapatinib on growth of HER2d16 tumors ([1]; listed as lapatinib) | effect of T-DM1 on growth of HER2d16 tumors ([1]; T-DM1 weekly via tail vein, 200 μg/mouse, from day 10, FIG. 6) | effect of T-DM1 on growth of HER2-WT MM3MG tumors (HER2-WT MM3MG) |
| --- | --- | --- | --- | --- |
| CS(=O)(=O)CCNCc1ccc(-c2ccc3ncnc(Nc4ccc(OCc5cccc(F)c5)c(Cl)c4)c3c2)o1 [Lapatinib] | only had a minor effect | resistant | – | – |
| Trastuzumab-DM1 [T-DM1] | – | – | more resistant; also recorded: only weakly impacted | significantly suppressed |
